From EP0107214A2, “Pharmaceutical compositions containing benzoyl-phenyl ureas with anti-tumour activity” (DUPHAR INTERNATIONAL RESEARCH B.V, priority 1982, dated 1984)
“And” between values parts separate entries of the source, which are not always exact repeats. Equal values may be shown once. Read-outs that look alike come from different tables or passages of the source.

Legend:
[1] = test system: Skin carcinoma (Ca 1025); assay: Skin carcinoma (Ca 1025) in AKR mice, tumor growth after intraperitoneal injection; format: in vivo; conditions: single injection 20 mg
Experimental: (§1) Ridgeway Osteogenic Sarcoma (ROS) in AKR mice. The advantage of the use of such a localized, non-metastatic tumor for studies on drug effects is that pertuba- tions of tumor growth and longevity of the mice are attributable to a direct effect on the primary tumor. • III. Skin carcinoma (Ca 1025) in AKR mice. This tumor represents a second histologic cell type arising from skin and is less malignant than malignant melanoma.
(§2) The compounds were tested by intraperitoneal injections of suspensions of the compounds in an aqueous solution of polyvinyl pyrrolidone.
The compound PH 60-44 was also tested in this model.

[2] = test system: B-16 malignant melanoma; assay: B-16 malignant melanoma in C57BL/6 mice, tumor growth after intraperitoneal injection; format: in vivo
Experimental: as §2
Mice with malignant melanomas were injected with 20 mg or 40 mg diflubenzuron in suspension or with the suspension medium (blank).
Finally compound 2) was given in doses of 20 mg each on days 0, 1 and 2.
Animals with growing tumors were treated with 100 mg of diflubenzuron alone (suspended in an aqueous solution of polyvinylpyrrolidone) or in combination with a metabolic inhibitor or a metabolic inducer according to the schedule given in Table XI.

[3] = test system: melanoma B-16 cells; assay: Malignant melanoma B-16 cells in vitro, cell count by Coulter Counter; format: cell-based; conditions: Mus musculus; for activity at 50 µg/mL: B16, 48 h, 50 ug/ml
Experimental: Cells of malignant melanomas B-16 grow as a monolayer. The doubling time of this type of cells in a cell--culture is 12 to 16 hours. For this experiment 6 multi-well tissue culture plates having a flat bottom with a surface area of 6 cm^2 appeared to be suitable and have been used.
On day 0 a quantity of melanoma B-16 cells were brought on the cell-culture plates.
The test compounds were sonicated and then incubated without cells for 3 hours at 37°C.
Then the compound to be tested was administered to the plates with melanoma B-16 cells in the desired quantity (each test was done in triplicate). Thereafter the plates were incubated in a C02-incubator for 20 hours at 37°C. Then the incubation was stopped by removing the culture medium containing the test compound, the cells were washed twice, and fresh culture medium was added.
48 Hours after starting the incubation step the number of cells on each plate was measured by means of a microcell Coulter Counter. The results so obtained have been expressed as "percentage of controll cell growth".
In the above experiment the compounds to be tested have been used in the form of a suspension. Since it is not quite clear how much of the active compounds is dissolved, the above results cannot be compared very well.
Therefore a number of compounds has been dissolved in ethanol.

[4] = test system: Ridgeway Osteogenic Sarcoma (ROS); assay: Ridgeway Osteogenic Sarcoma (ROS) in AKR mice, tumor growth after intraperitoneal injection; format: in vivo
Experimental: as §1, §2
Doses of diflubenzuron of 20 mg on day 0 (Table VI), 20 mg each on days 0 and 3; and 20 mg each on days 0, 1, 2, 5 and 6 (Table VII) were used in this test model. […]

[5] = 100 mg (20 mg days 0-4) after 2.4 mg cobaltous chloride (1.2 mg on days -2 and -1)
[6] = 100 mg (20 mg days 0-4) after 4 mg phenobarbital (1 mg on days -4 to -1)
[7] = 100 mg (20 mg days 0-4) after 6.4 mg 3-methylcholanthrene (1.6 mg on days -4 to -1)
[8] = 100 mg total, 20 mg each on day 0, 1, 2, 3 and 4
[9] = 2 x 20 mg, on day 0 and day 2 or 4
[10] = single injection 40 mg, i.p. suspension
[11] = 5 x 20 mg, days 0, 1, 2, 5 and 6

With `O=C(NC(=O)c1c(F)cccc1F)Nc1ccc(Cl)cc1` [Compound 1, 1-(2,6-difluorobenzoyl)-3-(4-chlorophenyl)urea] as the molecule, how does the “% change in tumor mass day 1” value [1] read?
The value was -3.8 (35) %.

What about the “% change in tumor mass day 2” value [1] of the same molecule?
Its value is 19.9 (7) %.

What about the “% change in tumor mass day 1” value [2, 5] of the same molecule?
Its value is 14.4 (16) %.

And the “% change in tumor mass day 2” value [2, 5]?
Its value is 20.9 (12) %.

And the “% change in tumor mass day 3” value [2, 5]?
The value was 36.4 (12) %.

And the “% change in tumor mass day 4” value [2, 5]?
Its value is 39.3 (12) %.

And the “% change in tumor mass day 5” value [2, 5]?
Its value is 59.7 (12) %.

And the “% change in tumor mass day 10” value [2, 5]?
Its value is 306 (12) %.

And the “% change in tumor mass day 14” value [2, 5]?
Its value is 782 (9) %.

What about the “% change in tumor mass day 1” value [2, 6] of the same molecule?
Its value is -19.4 (23) %.

And the “% change in tumor mass day 2” value [2, 6]?
The value was -10.4 (23) %.

And the “% change in tumor mass day 3” value [2, 6]?
The value was 0.8 (23) %.

What about the “% change in tumor mass day 4” value [2, 6] of the same molecule?
Its value is 21.7 (23) %.

What about the “% change in tumor mass day 5” value [2, 6] of the same molecule?
The value was 72.1 (23) %.

And the “% change in tumor mass day 10” value [2, 6]?
Its value is 293 (23) %.

And the “% change in tumor mass day 14” value [2, 6]?
The value was 572 (10) %.

And the “% change in tumor mass day 1” value [2, 7]?
Its value is -29.2 (34) %.

What about the “% change in tumor mass day 2” value [2, 7] of the same molecule?
Its value is -23.5 (34) %.

And the “% change in tumor mass day 3” value [2, 7]?
Its value is -20.6 (32) %.

And the “% change in tumor mass day 4” value [2, 7]?
The value was -15.1 (29) %.

And the “% change in tumor mass day 5” value [2, 7]?
The value was 5.7 (21) %.

What about the “% change in tumor mass day 10” value [2, 8] of the same molecule?
The value was 266 (17) %.

What about the “% change in tumor mass day 14” value [2, 8] of the same molecule?
The value was 378 (12) %.

And the “% change in tumor mass on day 11” value [2, 8]?
The value was 891 (12) %.

And the “% change in tumor mass day 2” value ([2]; 100 mg total, 20 mg each on day 0, 1, 2, 3 and 4, listed as diflubenzuron)?
The value was -8.6 (17) % and -12.5 (22) % and -7.2 (12) %.

What about the “% change in tumor mass day 1” value [2, 9] of the same molecule?
Its value is -11.7 (26) %.

What about the “% change in tumor mass day 2” value [2, 9] of the same molecule?
Its value is 18.6 (26) %.

And the “% change in tumor mass day 3” value [2, 9]?
The value was 92.6 (16) %.

What about the “% change in tumor mass day 4” value [2, 9] of the same molecule?
The value was 143 (26) %.

And the “% change in tumor mass day 5” value [2, 9]?
The value was 178 (10) %.

And the “% change in tumor mass day 6” value [2, 9]?
Its value is 264 (26) %.

And the “% change in tumor mass day 15” value [2, 9]?
Its value is 1187 (16) %.

What about the “reduction in tumor size within 24 hours of treatment” value ([2]; initial injection of 20 mg, two experiments, listed as diflubenzuron) of the same molecule?
The value was 11.7% and 13.4%.

And the “initial decrease (tumor size)” value ([2]; injection of 40 mg)?
The value was 22%.

What about the “% change in tumor mass day 2” value ([2]; single injection 20 mg, i.p. suspension) of the same molecule?
Its value is 18.6(26) %.

And the “% change in tumor mass day 1” value ([2]; single injection 20 mg, i.p. suspension, listed as diflubenzuron)?
The value was -11.7(26) % and -13.4(22) %.

What about the “initial doubling time (in days) 0-2 days” value ([2]; single injection 20 mg, calculated from change within 48 hours after treatment, listed as diflubenzuron) of the same molecule?
Its value is 10.4 days and 10.4(26) days.

What about the “% change in tumor mass day 1” value [2, 10] of the same molecule?
The value was -22.4(8) %.

What about the “% change in tumor mass day 2” value [2, 10] of the same molecule?
The value was -14.7(8) %.

And the “initial doubling time (in days) 0-2 days” value ([2]; single injection 40 mg, negative = time for decrease to one-half size)?
The value was -6.7(8) days.

What about the activity at 50 µg/mL ([3]; dissolved in ethanol, read-out: Percentage of controll cell growth (solution)) of the same molecule?
The activity at 50 µg/mL was 48%.

And the activity at 50 µg/mL ([3]; suspension, read-out: Percentage of controll cell growth (suspension))?
Its activity at 50 µg/mL is 79%.

And the activity at 500 µg/mL ([3]; B16, suspension, 20 hours incubation, cells counted at 48 hours, read-out: Percentage of controll cell growth when tested in an amount of 5 x 10^2 µg/ml)?
Its activity at 500 µg/mL is 78%.

And the activity at 5000 µg/mL ([3]; B16, suspension, 20 hours incubation, cells counted at 48 hours, read-out: Percentage of controll cell growth when tested in an amount of 5 x 10^3 µg/ml)?
The activity at 5000 µg/mL was 41%.

What about the “% change in tumor mass day 1” value ([4]; 20 mg on day 0) of the same molecule?
The value was 14.4 (29) %.

And the “% change in tumor mass day 2” value ([4]; 20 mg on day 0)?
Its value is 48.5 (19) %.

What about the “% change in tumor mass day 1” value ([4]; 2 x 20 mg, days 0 and 3) of the same molecule?
The value was 32.0 (10) %.

And the “% change in tumor mass day 3” value ([4]; 2 x 20 mg, days 0 and 3)?
The value was 104 (10) %.

What about the “% change in tumor mass day 4” value ([4]; 2 x 20 mg, days 0 and 3) of the same molecule?
Its value is 213 (10) %.

And the “% change in tumor mass day 5” value ([4]; 2 x 20 mg, days 0 and 3)?
Its value is 298 (10) %.

And the “% change in tumor mass day 7” value ([4]; 2 x 20 mg, days 0 and 3)?
Its value is 511 (10) %.

What about the “% change in tumor mass day 14” value ([4]; 2 x 20 mg, days 0 and 3) of the same molecule?
The value was 1682 (10) %.

And the “% change in tumor mass day 21” value ([4]; 2 x 20 mg, days 0 and 3)?
The value was 4051 (10) %.

What about the “% change in tumor mass day 1” value [4, 11] of the same molecule?
The value was 12.2 (10) %.

What about the “% change in tumor mass day 2” value [4, 11] of the same molecule?
Its value is 43.3 (10) %.

What about the “% change in tumor mass day 5” value [4, 11] of the same molecule?
The value was 285 (10) %.

And the “% change in tumor mass day 7” value [4, 11]?
The value was 423 (10) %.

And the “% change in tumor mass day 14” value [4, 11]?
The value was 2495 (10) %.

And the “% change in tumor mass day 21” value [4, 11]?
Its value is 8880 (8) %.
